Each structure is given as a SMILES string.

This experiment deals with T1, hMAGL (MAGL-overexpressing membrane preparations from transiently transfected HEK293T cells) (Homo sapiens, UniProt Q99685).
T1 construct: expressed in transfected cells; host or cells: HEK293T (transient transfection), membrane preparations
T1 sequence (Q99685 1-303): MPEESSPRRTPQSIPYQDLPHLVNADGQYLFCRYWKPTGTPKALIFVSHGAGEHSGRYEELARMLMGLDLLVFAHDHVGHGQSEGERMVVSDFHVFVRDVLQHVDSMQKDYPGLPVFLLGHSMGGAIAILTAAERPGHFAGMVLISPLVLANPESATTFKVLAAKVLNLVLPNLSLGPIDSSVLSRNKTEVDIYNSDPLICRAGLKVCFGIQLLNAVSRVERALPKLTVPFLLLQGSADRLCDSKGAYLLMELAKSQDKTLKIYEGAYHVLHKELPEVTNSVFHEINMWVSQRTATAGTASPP
Nature of the experiment: MAGL activity assay (2-AG hydrolysis, glycerol coupled to Amplifu Red fluorescence). The experiment is classed as biochemical. The note with it: hMAGL-overexpressing HEK293T membranes, 25 μM 2-AG substrate, 20 min. inhibitor incubation. The text has this:
The MAGL activity assay is based on the production of glycerol from 2-arachidonoylglycerol (2-AG) hydrolysis by MAGL-overexpressing membrane preparations from transiently transfected HEK293T cells, as previously reported in van der Wel T et al., “A natural substrate-based fluorescence assay for inhibitor screening on diacylglycerol lipase”, J Lipid Res., 2015, 56(4), 927-35. The produced glycerol is coupled to the oxidation of commercially available Amplifu™ Red (Sigma-Aldrich Chemie N.V., Zwijndrecht, Netherlands) via a multi-enzyme cascade, resulting in a fluorescent signal from the dye resorufin.
Standard assays were performed in HEMNB buffer (50 mM HEPES pH 7.4, 1 mM EDTA, 5 mM MgCl2, 100 mM NaCl, 0.5% (w/v) BSA) in black, flat bottom 96-wells plates. Final protein concentration of membrane preparations from overexpressing hMAGL HEK293T cells was 1.5 μg/mL (0.3 μg per well). Inhibitors were added from 40× concentrated DMSO stocks. […] Final assay concentrations: 0.2 U/mL GK, GPO and HRP, 0.125 mM ATP, 10 μM Amplifu™ Red, 25 μM 2-AG, 5% DMSO, 0.5% ACN in a total volume of 200 μL.
For IC50 determination, the MAGL-overexpressing membranes were incubated with different inhibitor concentrations. Slopes of corrected fluorescence in time were determined in the linear interval of t=10 to t=35 min and then scaled to the corrected positive control of hMAGL-overexpressing membranes treated with vehicle (DMSO) as a 100% activity reference point. The data was exported to GraphPad Prism 5.0 and analysed in a non-linear dose-response analysis with variable slope.
As for `C[C@H]1[C@H](C)N(c2cccc(Cl)c2)CCN1C(=O)c1ccc([S+]([O-])CC(=O)c2ncco2)c(Cl)c1` (mixture of isomers) [Example 74, (±) 2-((2-Chloro-4-(4-(3-chlorophenyl)-trans-2,3-dimethylpiperazine-1-carbonyl)phenyl)sulfinyl)-1-(oxazol-2-yl)ethan-1-one], the IC50 (in general, the concentration that gives 50% inhibition) was 204 nM. As for `CCC(F)(F)C(=O)C[S+]([O-])c1ccc(C(=O)N2CCN(c3cc(Cl)ccn3)[C@@H](C)[C@@H]2C)cc1Cl` (mixture of isomers) [Example 84, (±) 1-((2-Chloro-4-(4-(4-chloropyridin-2-yl)-trans-2,3-dimethylpiperazine-1-carbonyl)phenyl)sulfinyl)-3,3-difluoropentan-2-one], the figure is 2.82 nM. As for `CCOC(=O)C[S+]([O-])c1ccc(C(=O)N2CCN(c3cccc(C(F)(F)F)c3)[C@H](C)C2)cc1[N+](=O)[O-]` (stereo partly drawn) [Example 30, Ethyl 2-((4-((R)-3-methyl-4-(3-(trifluoromethyl)phenyl)piperazine-1-carbonyl)-2-nitrophenyl)sulfinyl)acetate], the figure is 115 nM; as for `C[C@H]1[C@H](C)N(c2cccc(Cl)c2)CCN1C(=O)c1ccc([S+]([O-])CC(=O)c2ccc(F)c(F)c2)c(Cl)c1` (mixture of isomers) [Example 94, (±) 2-((2-Chloro-4-(4-(3-chlorophenyl)-trans-2,3-dimethylpiperazine-1-carbonyl)phenyl)sulfinyl)-1-(3,4-difluorophenyl)ethan-1-one], 759 nM; as for `CCOC(=O)C[S+]([O-])c1c(F)cc(C(=O)N2CCN(c3cccc(Cl)c3)[C@H](C)C2)cc1F` (stereo partly drawn) [Example 106, Ethyl 2-((4-((R)-4-(3-chlorophenyl)-3-methylpiperazine-1-carbonyl)-2,6-difluorophenyl)sulfinyl)acetate], 282 nM. With `C[C@H]1[C@H](C)N(c2cccc(Cl)c2)CCN1C(=O)c1ccc([S+]([O-])CC(=O)c2cccc(F)c2F)c(Cl)c1` (mixture of isomers) [Example 93, (±) 2-((2-Chloro-4-(4-(3-chlorophenyl)-trans-2,3-dimethylpiperazine-1-carbonyl)phenyl)sulfinyl)-1-(2,3-difluorophenyl)ethan-1-one] the figure was 575 nM.

In turn, `CCOC(=O)C[S+]([O-])c1ccc(C(=O)N2CCN(c3cccc(C)c3)[C@@H](C)C2)cc1[N+](=O)[O-]` (stereo partly drawn) [Example 2, Ethyl 2-((4-((S)-3-methyl-4-(m-tolyl)piperazine-1-carbonyl)-2-nitrophenyl)sulfinyl)acetate] showed an IC50 of 269 nM.

The compound `C[C@H]1[C@H](C)N(c2cccc(Cl)c2)CCN1C(=O)c1ccc([S+]([O-])CC(=O)c2cccnc2)c(Cl)c1` (mixture of isomers) [Example 85, (±) 2-((2-Chloro-4-(4-(3-chlorophenyl)-trans-2,3-dimethylpiperazine-1-carbonyl)phenyl)sulfinyl)-1-(pyridin-3-yl)ethan-1-one] gave an IC50 of 9770 nM.

Turning to `C[C@H]1[C@H](C)N(c2cccc(Cl)c2)CCN1C(=O)c1ccc([S+]([O-])CC(=O)c2ccc(F)cc2F)c(Cl)c1` (mixture of isomers) [Example 97, (±) 2-((2-Chloro-4-(4-(3-chlorophenyl)-trans-2,3-dimethylpiperazine-1-carbonyl)phenyl)sulfinyl)-1-(2,4-difluorophenyl)ethan-1-one], half-maximal inhibition (IC50) was put at 234 nM. With `C[C@H]1[C@H](C)N(c2cccc(Cl)c2)CCN1C(=O)c1ccc([S+]([O-])CC(=O)C(F)(F)F)c(Cl)c1` (mixture of isomers) [Example 73, (±) 3-((2-Chloro-4-(4-(3-chlorophenyl)-trans-2,3-dimethylpiperazine-1-carbonyl)phenyl)sulfinyl)-1,1,1-trifluoropropan-2-one] the figure was 7.41 nM; with `CCOC(=O)C[S+]([O-])c1ccc(C(=O)N2CCN(c3cccc(Cl)c3)CC2C)cc1F` (centres unmarked) [Example 44, Ethyl 2-((4-(4-(3-chlorophenyl)-2-methylpiperazine-1-carbonyl)-2-fluorophenyl)sulfinyl)acetate], 27.5 nM.

(Values after patent publication US20230121721A1, “MONOACYLGLYCEROL LIPASE INHIBITORS” (STICHTING HET NEDERLANDS KANKER INSTITUUT - ANTONI VAN …, priority 2020, published 2023).)
